# Measurements: patent US6274715A, “Tricyclic erythromycin derivatives” (priority 1997, dated 2001)
# Columns and labels:
# Format in all cases: cell-based
# [1] = tested on: STAPHYLOCOCCUS AUREUS 1775; test: In vitro antibacterial activity, MIC, BHI agar dilution; conditions: S. aureus 1775, unit assumed
# [2] = tested on: STREPTOCOCCUS PYOGENES EES61; test: as above; conditions: S. pyogenes EES61, unit assumed
# [3] = tested on: STREPTOCOCCUS PYOGENES PIU 2548; test: as above; conditions: S. pyogenes PIU 2548, unit assumed
# [4] = tested on: STAPHYLOCOCCUS EPIDERMIDIS 3519; conditions: S. epidermidis 3519; BHI agar; unit assumed
# [5] = tested on: PSEUDOMONAS AERUGINOSA 5007; test: In vitro antibacterial activity, MIC, BHI agar dilution; conditions: P. aeruginosa 5007, unit assumed
# [6] = tested on: PROVIDENCIA STUARTII CMX 640; conditions: P. stuartii CMX 640; BHI agar; unit assumed
# [7] = tested on: STREPTOCOCCUS PYOGENES 930; test: In vitro antibacterial activity, MIC, BHI agar dilution; conditions: S. pyogenes 930, unit assumed
# [8] = tested on: PSEUDOMONAS AERUGINOSA K799/WT; test: as above; conditions: P. aeruginosa K799/WT, unit assumed
# [9] = tested on: STAPHYLOCOCCUS AUREUS CMX 553; test: as above; conditions: S. aureus CMX 553, unit assumed
# [10] = tested on: PSEUDOMONAS AERUGINOSA DPHD-5263; test: as above; conditions: P. aeruginosa DPHD-5263, unit assumed
# [11] = tested on: STAPHYLOCOCCUS AUREUS A5177; test: as above; conditions: S. aureus A5177, unit assumed
# [12] = tested on: MYCOBACTERIUM SMEGMATIS ATCC 114; test: as above; conditions: M. smegmatis ATCC 114, unit assumed
# CANDIDA ALBICANS CCH 442 = test: as above; conditions: C. albicans CCH 442, unit assumed
# [13] = tested on: KLEBSIELLA PNEUMONIAE ATCC 8045; test: as above; conditions: K. pneumoniae ATCC 8045, unit assumed
# EN[…] ATCC 8043 = test: as above; conditions: E. faecium ATCC 8043, unit assumed
# Outline: (§1)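 MIC was read visually as the lowest drug level with no growth, a slight haze or sparsely isolated colonies relative to a compound-free growth control. Organisms were spotted at 1:100 dilution (1:10 for slow-growing strains) onto Brain Heart Infusion agar containing serial compound dilutions and incubated 20 to 24 hours at 35-37° C.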
# STR[…] 508 = test: as above; conditions: S. agalactiae CMX 508, unit assumed
# Outline: as §1
# M[…] ATCC 4698 = test: as above; conditions: M. luteus ATCC 4698, unit assumed
# Outline: as §1
# M[…] ATCC 9341 = test: as above; conditions: M. luteus ATCC 9341, unit assumed
# Outline: as §1
# [14] = tested on: PSEUDOMONAS AERUGINOSA K799/61; test: as above; conditions: P. aeruginosa K799/61, unit assumed
# ESCHERICHIA COLI KNK 437 = conditions: E. coli KNK 437; BHI agar; unit assumed
# ESCHERICHIA COLI DC-2 = test: In vitro antibacterial activity, MIC, BHI agar dilution; conditions: E. coli DC-2, unit assumed
# [15] = tested on: PSEUDOMONAS AERUGINOSA BMH10; test: as above; conditions: P. aeruginosa BMH10, unit assumed
# [16] = tested on: ENTEROBACTER AEROGENES ATCC 13048; test: as above; conditions: E. aerogenes ATCC 13048, unit assumed
# [17] = tested on: STAPHYLOCOCCUS AUREUS A-5278; test: as above; conditions: S. aureus A-5278, unit assumed
# ESCHERICHIA COLI SS = test: as above; conditions: E. coli SS, unit assumed
# ESCHERICHIA COLI JUHL = conditions: E. coli JUHL; BHI agar; unit assumed
# [18] = tested on: STAPHYLOCOCCUS AUREUS NCTC10649M; test: In vitro antibacterial activity, MIC, BHI agar dilution; conditions: S. aureus NCTC10649M, unit assumed
# [19] = tested on: STREPTOCOCCUS BOVIS A-5169; test: as above; conditions: S. bovis A-5169, unit assumed
# [20] = tested on: STAPHYLOCOCCUS AUREUS ATCC 6538P; test: as above; conditions: S. aureus ATCC 6538P, 35-37° C., 20 to 24 hours, unit assumed
# ESCHERICHIA COLI H560 = test: as above; conditions: E. coli H560, unit assumed
# PSEUDOMONAS CEPACIA 296I = test: as above; conditions: P. cepacia 296I, unit assumed
# [21] = tested on: PSEUDOMONAS AERUGINOSA DPHD-2862; test: as above; conditions: P. aeruginosa DPHD-2862, unit assumed
# [22] = tested on: STAPHYLOCOCCUS AUREUS CMX 642A; test: as above; conditions: S. aureus CMX 642A, unit assumed
Structure (SMILES),MIC [1] [µg/mL],MIC [2] [µg/mL],MIC [3] [µg/mL],MIC [4] [µg/mL],MIC [5] [µg/mL],MIC [6] [µg/mL],MIC [7] [µg/mL],MIC [8] [µg/mL],MIC [9] [µg/mL],MIC [10] [µg/mL],MIC [11] [µg/mL],MIC [12] [µg/mL],MIC (CANDIDA ALBICANS CCH 442) [µg/mL],MIC [13] [µg/mL],MIC (EN[…] ATCC 8043) [µg/mL],MIC (STR[…] 508) [µg/mL],MIC (M[…] ATCC 4698) [µg/mL],MIC (M[…] ATCC 9341) [µg/mL],MIC [14] [µg/mL],MIC (ESCHERICHIA COLI KNK 437) [µg/mL],further results
CC[C@H]1OC(=O)[C@H](C)C(=O)[C@H](C)[C@@H](O[C@@H]2O[C@H](C)C[C@H](N(C)C)[C@H]2O)[C@](C)(OC)C[C@@H](C)C2=NC3CCCC3N3C(=O)O[C@@]1(C)[C@H]3[C@H]2C (stereo partly drawn) [Example 107],> 100,0.02,0.39,0.78,> 100,> 100,> 100,> 100,0.78,> 100,0.78,1.56,> 100,> 100,0.1,0.02,0.39,0.05,6.2,> 100,MIC (ESCHERICHIA COLI DC-2): > 100 µg/mL; MIC [15]: > 100 µg/mL; MIC [16]: > 100 µg/mL; MIC [17]: > 100 µg/mL; MIC (ESCHERICHIA COLI SS): 0.39 µg/mL; MIC (ESCHERICHIA COLI JUHL): > 100 µg/mL; MIC [18]: 0.78 µg/mL; MIC [19]: 0.01 µg/mL; MIC [20]: 0.78 µg/mL; MIC (ESCHERICHIA COLI H560): 50 µg/mL; MIC (PSEUDOMONAS CEPACIA 296I): > 100 µg/mL; MIC [21]: > 100 µg/mL; MIC [22]: 0.78 µg/mL
CC[C@H]1OC(=O)[C@H](C)C(=O)[C@H](C)[C@@H](O[C@@H]2O[C@H](C)C[C@H](N(C)C)[C@H]2O)[C@](C)(OC)C[C@@H](C)C2=NC3CNCC3N3C(=O)O[C@@]1(C)[C@H]3[C@H]2C (stereo partly drawn) [Example 109],> 100,0.05,0.78,0.39,> 100,> 100,> 100,> 100,0.78,> 100,0.39,3.1,> 100,25,0.1,0.1,0.2,0.05,0.39,25,MIC (ESCHERICHIA COLI DC-2): 12.5 µg/mL; MIC [15]: 50 µg/mL; MIC [16]: 25 µg/mL; MIC [17]: > 100 µg/mL; MIC (ESCHERICHIA COLI SS): 0.2 µg/mL; MIC (ESCHERICHIA COLI JUHL): 25 µg/mL; MIC [18]: 0.39 µg/mL; MIC [19]: 0.05 µg/mL; MIC [20]: 0.39 µg/mL; MIC (ESCHERICHIA COLI H560): 6.2 µg/mL; MIC (PSEUDOMONAS CEPACIA 296I): > 100 µg/mL; MIC [21]: > 100 µg/mL; MIC [22]: 0.39 µg/mL
CC[C@H]1OC(=O)[C@H](C)C(=O)[C@H](C)[C@@H](O[C@@H]2O[C@H](C)C[C@H](N(C)C)[C@H]2O)[C@](C)(OC)C[C@@H](C)C2=NC3CN(C)CC3N3C(=O)O[C@@]1(C)[C@H]3[C@H]2C (stereo partly drawn) [Example 114],> 100,0.05,1.56,1.56,> 100,> 100,> 100,> 100,1.56,> 100,0.78,6.2,> 100,> 100,0.2,0.1,1.56,0.1,6.2,100,MIC (ESCHERICHIA COLI DC-2): 100 µg/mL; MIC [15]: > 100 µg/mL; MIC [16]: 100 µg/mL; MIC [17]: > 100 µg/mL; MIC (ESCHERICHIA COLI SS): 0.78 µg/mL; MIC (ESCHERICHIA COLI JUHL): 100 µg/mL; MIC [18]: 1.56 µg/mL; MIC [19]: 0.02 µg/mL; MIC [20]: 1.56 µg/mL; MIC (ESCHERICHIA COLI H560): 50 µg/mL; MIC (PSEUDOMONAS CEPACIA 296I): > 100 µg/mL; MIC [21]: > 100 µg/mL; MIC [22]: 1.56 µg/mL
CC[C@H]1OC(=O)[C@H](C)C(=O)[C@H](C)[C@@H](O[C@@H]2O[C@H](C)C[C@H](N(C)C)[C@H]2O)[C@](C)(OC)C[C@@H](C)C2=NC3CN(CCc4ccc([N+](=O)[O-])cc4)CC3N3C(=O)O[C@@]1(C)[C@H]3[C@H]2C (stereo partly drawn) [Example 118],> 100,0.05,0.78,0.39,> 100,> 100,> 100,> 100,0.39,> 100,0.2,0.78,> 100,> 100,0.2,0.02,0.2,0.05,0.78,> 100,MIC (ESCHERICHIA COLI DC-2): > 100 µg/mL; MIC [15]: > 100 µg/mL; MIC [16]: > 100 µg/mL; MIC [17]: > 100 µg/mL; MIC (ESCHERICHIA COLI SS): 0.78 µg/mL; MIC (ESCHERICHIA COLI JUHL): 100 µg/mL; MIC [18]: 0.39 µg/mL; MIC [19]: ≤ 0.005 µg/mL; MIC [20]: 0.39 µg/mL; MIC (ESCHERICHIA COLI H560): 100 µg/mL; MIC (PSEUDOMONAS CEPACIA 296I): > 100 µg/mL; MIC [21]: > 100 µg/mL; MIC [22]: 0.39 µg/mL
